Where a name gives a salt, the structure may show the parent alone. Read-outs that look alike come from different tables or passages of the source.
B1: secretory leukocyte protease inhibitor (protein, UniProt P03973 26-132, looked up)
Antileukoproteinase: SGKSFKAGVCPPKKSAQCLRYKKPECQSDWQCPGKKRCCPDTCGIKCLDPVDTPNPTRRKPGKCPVTYGQCLMLNPPNFCEMDGQCKRDLKCCMGMCGKSCVSPVKA

Experiments:
SARS-CoV-2 [1] = format: cell-based
SARS-CoV-2 [2] = format: cell-based; settings: Calu-3 cells
Caco-2 cells = settings: tested concentrations (data not shown)
HEK-293T cells = format: cell-based, human; settings: tested concentrations (data not shown)
TMPRSS2 = target: T1, TMPRSS2 (Homo sapiens, UniProt O15393); assay: TMPRSS2 proteolytic activity in TMPRSS2-overexpressing HEK-293T cells, fluorogenic substrate BOC-QAR-AMC; format: cell-based
T1 construct: expressed in transfected cells; host or cells: HEK-293T
T1 sequence (O15393 whole entry): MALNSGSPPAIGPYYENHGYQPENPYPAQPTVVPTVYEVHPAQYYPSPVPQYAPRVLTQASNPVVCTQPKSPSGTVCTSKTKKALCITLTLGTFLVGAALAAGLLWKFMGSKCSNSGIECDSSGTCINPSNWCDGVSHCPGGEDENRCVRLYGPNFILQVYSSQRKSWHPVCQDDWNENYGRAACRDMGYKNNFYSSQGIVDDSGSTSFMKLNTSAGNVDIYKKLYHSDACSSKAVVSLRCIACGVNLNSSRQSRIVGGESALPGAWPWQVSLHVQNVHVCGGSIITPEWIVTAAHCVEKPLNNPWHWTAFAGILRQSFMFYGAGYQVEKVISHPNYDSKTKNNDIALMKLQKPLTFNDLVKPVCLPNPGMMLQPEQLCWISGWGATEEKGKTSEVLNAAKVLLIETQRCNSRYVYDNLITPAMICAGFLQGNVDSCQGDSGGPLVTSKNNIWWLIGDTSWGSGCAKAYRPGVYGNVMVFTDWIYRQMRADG
Protocol: B. Arbitrary fluorescence unit (AFU) measurements of control or TMPRSS-overexpressing cells incubated with BOC-QAR-AMC for 75 minutes at 37° C. are shown. Wells containing PBS and BOC-QAR-AMC were used as background fluorescence reads. C. Fluorescence of control or TMPRSS2-overexpressing cells was measured every 15 minutes for a total time of 180 minutes. D. The average proteolytic activity rate per minute of control or TMPRSS2-overexpressing cells. The fluorescent signal was measured by the UV filter (excitation 365 nm and emission 410 nm).
The results in A-C are presented as the means±SE from at least 3 independent experiments performed in duplicate and/or triplicate.
The following describes the development of an experimental framework for quantifying TMPRSS2 proteolytic activity. TMPRSS2 with a C-terminal V5 tag was overexpressed in a human cell line, HEK-293T, because of its high transfectability.
The effect of protease inhibitors on TMPRSS2 activity was tested.

Row | Molecule | decrease in viral load (genomic SARS-CoV-2 from intracellular RNA) compared with untreated control cells (SARS-CoV-2 [1]; Caco-2 cells, 10 μM, twenty hours after infection) | SARS-CoV-2 plaque formation (SARS-CoV-2 [2]; 24 hours after infection) | SARS-CoV-2 plaque formation (SARS-CoV-2 [2]; 48 hours after infection) | toxicity in Caco-2 cells (Caco-2 cells) | toxic effects in viability assays (HEK-293T cells) | decrease in viral load (genomic SARS-CoV-2 from intracellular RNA) compared with untreated control cells (SARS-CoV-2 [1]) | IC50 (TMPRSS2; BOC-QAR-AMC, read-out: IC50 of inhibition of TMPRSS2 proteolytic activity) | inhibition of TMPRSS2 proteolytic activity (TMPRSS2; all tested concentrations)
1 | CN(C)C(=O)COC(=O)Cc1ccc(OC(=O)c2ccc(NC(=N)N)cc2)cc1 [camostat mesylate, reference compound] | −3.9 fold | decreased SARS-CoV-2 plaque formation | effect of camostat lasted | nontoxic |  |  |  | 
2 | alpha 1 antitrypsin [A1AT] |  |  |  | nontoxic | did not demonstrate toxic effects | −2.6 fold | 357 nM | 
3 | B1 |  |  |  |  |  |  |  | none of the tested concentrations of SLPI inhibited TMPRSS2 proteolytic activity
